Literature values in US20240415944A1, “Aqueous aprotinin-containing antiviral pharmaceutical composition” (priority 2021, published 2024).
Read-outs that look alike come from different tables or passages of the source.

Experiments:
[1] = clinical trials of acute uncomplicated influenza
[2] = system: kallikrein; conditions: manufacturer data
[3] = system: influenza; conditions: adult influenza patients
[4] = kallikrein inactivating units per mg

Q: Which results are given for `COC(=O)OCOc1c2n(ccc1=O)N([C@@H]1c3ccccc3SCc3c1ccc(F)c3F)[C@@H]1COCCN1C2=O` [baloxavir, baloxavir marboxil]?
A: adverse reaction: bronchitis [1]: 3%; adverse reaction: diarrhea [1]: 3%; adverse reaction: headache [1]: 1%; adverse reaction: nausea [1]: 2%; adverse reaction: sinusitis [1]: 2%

Q: For “aprotinin [aprotinin produced by Sigma-Aldrich (USA)]”, which aprotinin activity [2, 4] is on record?
A: The aprotinin activity was 6500 KIU/mg.

Q: For “aprotinin [aprotinin produced by Wanhua Biochem (China) No. NATE-1892]”, which aprotinin activity [2, 4] is on record?
A: Its aprotinin activity is over 5400 KIU/mg.

Q: And the aprotinin activity [2]?
A: The aprotinin activity was over 3.0 EPU/mg.

Q: With `CCOC(=O)C1=C[C@@H](OC(CC)CC)[C@H](NC(C)=O)[C@@H](N)C1` [Oseltamivir, oseltamivir] as the molecule, how does the “mean time to relief of clinical symptoms” value [3] read?
A: The value was 97.5 h.

Q: And the “risk of nausea (RR)” value [3]?
A: The value was 1.60.

Q: What about the “risk of vomiting (RR)” value [3] of the same molecule?
A: Its value is 2.43.

Q: What about the “acceleration of time to relief of clinical symptoms” value ([3]; versus placebo) of the same molecule?
A: The value was 17.8 to 25.2 h.
